Data set [1] relates to bladder afferents of CVH mice. Description: Ex-vivo afferent recordings from bladder pelvic afferents during ramp distension. The class given is in vivo, C57/BL6 mice. Particulars: vs vehicle. How it is done:
(§1) Male C57 BL/6 mice were used in all experiments. Colitis was induced by administration of TNBS as described previously (Brierley et al., (2011) J. Physiol, 15: 3575-3593, incorporated herein by reference in its entirety). Briefly, 13-week-old mice were administered an intra-colonic enema of 0.1 mL TNBS (130 μg/mL in 30% EtOH) via a polyethylene catheter inserted 3 cm from the anus of isoflurane anaesthetized mice. Mice were then individually housed and observed daily for changes in body weight, physical appearance and behavior. Histological examination of mucosal architecture, cellular infiltrate, crypt abscesses, and goblet cell depletion confirmed TNBS-induced significant damage by day 3-post treatment, largely recovered by day 7 and fully recovered at the day 28-time point (Brierley et al., (2008) Gastroenterology, 134: 2059-69, incorporated herein by reference). High-threshold nociceptors from mice at the 28 day time point display significant mechanical hypersensitivity, lower mechanical activation thresholds and display hyperalgesia and allodynia. As such, they are therefore termed ‘chronic visceral hypersensitivity’ (CVH) mice.
Pelvic bladder afferents are classified by their ability to respond to urinary bladder ramp distension. During bladder distension there is an increase in intravesical pressure and a corresponding increase in the afferent neuron activity. The mechanosensitivity of these afferents was tested in bladder preparations from healthy and CVH mice as well as CVH mice that received either a 2 week treatment of once daily oral gavage of vehicle or of linaclotide (3 μg/kg/day) by ramp distension to a final intravesical pressure of 30 mmHg.
Recordings were made from healthy and CVH mice, which had been chronically administered either vehicle or linaclotide (3 μg/kg/day) for a total duration to 2 weeks, and which were euthanized via CO2 inhalation and cervical dislocation. The animal was cut in two at the level of L2, removing vascular connections via the aorta and vena cava, yet ensuring the kidneys and ureters remained intact. […]

The test system of data set [2] is bladder afferents and detrusor smooth muscle of CVH mice. Description: Exogenous chemical stimulation of bladder afferents and bladder muscle (carbachol, αβMe-ATP, capsaicin). The format is in vivo, C57/BL6 mice. The note with it: vs vehicle. The method, then:
as §1
The chemosensitivity of bladder afferents was also tested following isolation of pelvic afferents and catheterisation of the bladder described above. Following an equilibration period, when bladder afferent responses to ramp distension are stable, the bladder was distended to a physiological pressure of 6 mmHg above baseline. At this point, the saline perfusion is stopped but the outflow tap remains closed as to maintain the volume in the bladder. The bladder is maintained in this state to accommodate the increase in volume for 45 minutes whilst the baseline intravesical pressure and afferent firing stabilize.
Following the equilibration period, the bath perfusion is briefly turned off and a bolus dose of agonist is applied. Carbachol (1 μM), αβMe-ATP (30 μM), and capsaicin (10 μM) were applied in series with a 1 hr washout period between each dose.
Chemosensitive responses were measured as the number of action potentials crossing a pre-set threshold at a given time following agonist administration. The intravesical pressure was determined as the change from baseline pressure at a given time following agonist administration.
Data are expressed as mean with the SEM, and n is the number of animals. Data were analyzed using unpaired t-test to determine significance when comparing single points or a two-way analysis of variance (ANOVA) when comparing between experimental groups throughout a ramp distension or exogenous agonist protocol. Differences were considered significant at P<0.05. […] Muscle compliance is calculated by plotting intravesical pressure against intravesical volume, which is in turn determined from the time taken to distend to a particular pressure.
Whole nerve multifiber afferent nerve activity was quantified using the spike 2 software, which counted the number of action potentials crossing a pre-set threshold. Data are expressed as mean±SEM. n indicates the number of individual animals. Data were analyzed using Prism 5 software (GraphPad Software, San Diego, Calif., USA) where appropriate, un-paired t-tests were used, or two-way analysis of variance (ANOVA) followed by posthoc tests. Differences were considered significant at a level of *P<0.05, **P<0.01 and ***P<0.001.

For data set [3] the following is noted: human volunteers; cited from earlier work.
The test system of data set [4] is retrogradely traced bladder thoracolumbar (TL) DRG neurons. Description: Patch clamp recordings from retrogradely traced bladder DRG neurons. The class given is in vivo, C57/BL6 mice. The note with it: TL DRG neurons from CVH mice, once daily oral gavage for 2 weeks, vs vehicle. The method, then:
Laparotomy was performed on anaesthetized (2-3% isofluorane/0.3 L/min O2) mice. […]; ThermoFisher product nr. C22842 (former LifeTechnologies)) was used for subserosal injection (2-3 ul per injection) in descending colon or dorsal and lateral bladder using a 30G Hamilton needle. Incision was closed with Prolene 6/0 suture (Johnson&Johnson product nr. 8636G). All mice were given 100 ul of buprenorphine (1:12) and Baytril (1:20) for post-operative care and left for 4 days before humanely killed for DRG cell culture.
Recordings were made from healthy and CVH mice. CVH mice received chronic administration of either vehicle or linaclotide (3 μg/kg/day) for a total duration of 2 weeks. Mice were euthanized via CO2 inhalation and DRGs from thoracolumbar (T10-L1) and lumbosacral (L6-S1) regions removed and digested with 3 mg mL−1 collagenase II (Gibco) and 4 mg mL−1 dispase (Gibco) for 30 min at 37° C., followed by 3 mg mL−1 collagenase II only for 10 min at 37° C. […]
Recordings were made similarly to those we have described previously (Brierley et al., 2011, ibid). […] Signals were amplified by using an Axopatch 200A amplifier, digitized with a Digidata 1322A and recorded using pCLAMP 9 software (Molecular Devices, Sunnyvale, Calif., USA). […] In current clamp studies a series of depolarizing pulses (500 ms, 10 pA step) were applied from a holding potential ([…]) and the rheobase (or amount of current (pA) required for action potential generation) determined. The number of action potentials at rheobase and 2× rheobase was also determined and the resting membrane potential was noted. […]
Action potentials were recorded in current clamp mode and the rheobase, or the amount of injected current (pA) required to elicit an action potential determined. The numbers of action potentials at rheobase and 2× rheobase were also recorded as well as noting the resting membrane potential. Data were analyzed using Prism 5 software (GraphPad Software, San Diego, Calif., USA) where appropriate, un-paired t-tests or one-way analysis of variance (ANOVA) followed by posthoc tests. […]

Where no end group is shown, it is not given here.

For the sequence “CCEYCCNPACTGCY (cysteine pairing not given here) [linaclotide]”, in data set [1] (once daily oral gavage 3 μg/kg/day for 2 weeks, FIG. 2A, P≤0.001), the “afferent nerve activity over the time course of ramp distension” value is “significant decrease”. Also, in data set [1] (once daily oral gavage 3 μg/kg/day for 2 weeks, FIG. 2B, P≤0.05), the “peak afferent response to distension” value is listed as “significant decrease”. In data set [1] (once daily oral gavage for 2 weeks, FIG. 2C), the bladder compliance result is “no change”. Further, the “bladder afferent response to capsaicin” value in data set [2] (capsaicin 10 μM, once daily oral gavage for 2 weeks, p≤0.01) is given as “significantly reduced”. Also, in data set [2] (carbachol 1 μM, once daily dosing for 2 weeks), the “bladder contraction response to carbachol” value is on record as “significantly reduced”. Further, the “bladder afferent response to carbachol” value in data set [2] (carbachol 1 μM, once daily oral gavage for 2 weeks, p≤0.001) is “significantly reduced”. For the same sequence, the “bladder contraction response to αβMe-ATP” value in data set [2] (αβMe-ATP 30 μM, once daily dosing for 2 weeks) is given as “significantly reduced”. Further, the “bladder afferent response to αβMe-ATP” value in data set [2] (αβMe-ATP 30 μM, once daily oral gavage for 2 weeks, p≤0.001) is “significantly reduced”. In addition, the “oral dose found in feces” value in data set [3] was “about 5%”. Besides, the resting membrane potential entry in data set [4] is reported as “no effect”. In data set [4] (p=0.02), the “number of action potentials at 2× rheobase” value is reported as “significantly decreases” and the rheobase result is given as “significantly increases”.

(Values after patent publication US20220202725A1, “Modified or Targeted Release Formulations of Linaclotide” (Ironwood Pharmaceuticals, Inc., priority 2015, published 2022).)
